# Activity calls are given as the source filed them. No rule for the calls is given here.
# Test system: Broad 7084-01 inhibitor HTS, set 2
# Test: single-concentration hits, screen 7084 set 2 (AID 977613);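 also: host cells are infected with parasite promastigotes that become internalized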
row,SMILES,active concentration
1,CN1C(=O)c2cc(NC(=O)c3ccc(F)c(F)c3)ccc2OC[C@@H]2O[C@@H](CC(=O)N[C@@H]3CCN(Cc4ccccc4)C3)CC[C@H]21,> 10 µM (inactive)
2,CN(C)CC(=O)N1C[C@@H]2[C@H](c3ccccc31)[C@H](CO)N2Cc1cc(F)ccc1F,> 10 µM (inactive)
3,COc1ccccc1C(=O)N1C[C@H]2[C@@H](c3ccccc31)[C@@H](CO)N2C(=O)Cc1cccnc1,> 10 µM (inactive)
4,CCS(=O)(=O)N1CC2(C1)[C@H](c1ccccc1)[C@@H](CO)N2C(=O)c1ccccc1,> 10 µM (inactive)
5,CC=Cc1ccc2n(c1=O)C[C@H]1[C@H](CO)[C@@H](C(=O)N[C@@H](C)c3ccccc3)N(C(=O)c3cnccn3)[C@@H]21 (mixture of isomers),> 10 µM (inactive)
6,O=C([C@@H]1[C@@H](CO)[C@@H]2Cn3c(cccc3=O)[C@H]1N2CC1CC1)N1CCc2ccccc2C1,> 10 µM (inactive)
7,CC(=O)N1[C@H](C(=O)NCc2ccccc2Cl)[C@@H](CO)[C@@H]2Cn3c(ccc(-c4cncnc4)c3=O)[C@@H]21,> 10 µM (inactive)
8,O=C(c1cnccn1)N1CC(=O)N2[C@H](CO)[C@@H](c3ccc(C#CC4CC4)cc3)[C@@H]2C1,> 10 µM (inactive)
9,N#Cc1cccc(-c2ccc3c(c2)[C@H]2[C@H](CCN2S(=O)(=O)c2ccc(F)cc2)[C@@H](CO)N3)c1,> 10 µM (inactive)
10,COc1cccc(-c2ccc3c(c2)[C@@H]2[C@@H](CCN2S(=O)(=O)c2cn(C)cn2)[C@@H](CO)N3)c1,> 10 µM (inactive)
11,O=C(C[C@@H]1CC[C@H]2[C@@H](COC[C@@H](O)CN2Cc2ccc3c(c2)OCO3)O1)Nc1ccccc1,> 10 µM (inactive)
12,C/C=C/c1ccc([C@H]2[C@@H](CO)N3C(=O)CN(Cc4ccc(F)cc4)C[C@@H]23)cc1,> 10 µM (inactive)
13,CCC(=O)N1CC2(CN(C(C)=O)C2)c2c([nH]c3cc(OC)ccc23)[C@@H]1CO,> 10 µM (inactive)
14,O=C(C[C@H]1CC[C@@H]2[C@H](COC[C@@H](O)CN2Cc2cc(F)cc(F)c2)O1)NC1CCC1,> 10 µM (inactive)
15,Cc1noc(C)c1NC(=O)N1C[C@@H](O)COC[C@@H]2O[C@H](CC(=O)NCC3CCCCC3)CC[C@H]21,> 10 µM (inactive)
16,CCCNC(=O)[C@@H]1[C@@H](CO)[C@@H]2Cn3c(cccc3=O)[C@@H]2N1C,> 10 µM (inactive)
17,CN(C)C(=O)c1cccc(-c2ccc([C@H]3[C@H]4CN(CC5CCOCC5)CCCCN4[C@H]3CO)cc2)c1,> 10 µM (inactive)
18,C/C=C/c1ccc([C@H]2[C@H]3CN(S(=O)(=O)c4ccc(OC)cc4)CCCCN3[C@H]2CO)cc1,> 10 µM (inactive)
19,O=C(C1CCCCC1)N1CC2(C1)[C@@H](c1ccccc1)[C@H](CO)N2C(=O)c1cccnc1,> 10 µM (inactive)
20,CN1c2ccc(C3=CCCCC3)cc2[C@H]2[C@H](CCN2C(=O)C2CCCC2)[C@@H]1CO,> 10 µM (inactive)
21,O=C(C[C@H]1CC[C@H]2[C@@H](COC[C@H](O)CN2Cc2cccc(F)c2)O1)NCc1cccc(F)c1,> 10 µM (inactive)
22,COc1ccc2c3c([nH]c2c1)[C@@H](CO)N(C(=O)c1cccnc1)CC31CCN(C(=O)CN(C)C)CC1,> 10 µM (inactive)
23,COc1ccc(C#Cc2ccc3c(c2)[C@H]2[C@H](CCN2C(=O)Nc2ccc(C(F)(F)F)cc2)[C@@H](CO)N3C)cc1,> 10 µM (inactive)

row,SMILES,active concentration
1,O=C(Cc1ccncc1)N1CC[C@@H]2[C@H](CO)Nc3ccc(-c4ccccc4F)cc3[C@@H]21,> 10 µM (inactive)
2,O=C(C[C@@H]1CC[C@@H]2[C@H](COC[C@H](O)CN2CC2CC2)O1)NCC1CC1,> 10 µM (inactive)
3,Cc1nn(C)cc1NC(=O)C[C@@H]1CC[C@H]2[C@H](COc3ccc(NC(=O)C4CCOCC4)cc3C(=O)N2C)O1,> 10 µM (inactive)
4,OC[C@@H]1[C@H](c2ccccc2)C2(CN(Cc3nccs3)C2)N1CCC(F)(F)F,> 10 µM (inactive)
5,O=C(C[C@@H]1CC[C@H]2[C@@H](COC[C@H](O)CN2C(=O)Nc2cc(Cl)cc(Cl)c2)O1)NCC1CCCCC1,> 10 µM (inactive)
6,O=C(c1cnccn1)N1CC(=O)N2[C@H](CO)[C@H](c3ccc(C#CC4CC4)cc3)[C@@H]2C1,> 10 µM (inactive)
7,O=C(C1CCC1)N1CC2(C1)[C@@H](c1ccccc1)[C@@H](CO)N2C(=O)c1ccccn1,< 10 µM
8,Cc1ccc(S(=O)(=O)N2CC[C@@H]3[C@H]2c2cc(C#Cc4ccc(F)cc4)ccc2N[C@@H]3CO)cc1,> 10 µM (inactive)
9,CCCC#Cc1ccc([C@@H]2[C@@H](CO)N3C(=O)CN(C(=O)CN4CCOCC4)C[C@@H]23)cc1,> 10 µM (inactive)
10,O=C(NC1CCCC1)N1CCCCN2[C@H](CO)[C@@H](c3ccc(-c4cccnc4)cc3)[C@@H]2C1,> 10 µM (inactive)
11,Cc1ccccc1S(=O)(=O)N1CCCCN2[C@H](C1)[C@@H](c1ccc(C#CCN(C)C)cc1)[C@@H]2CO,> 10 µM (inactive)
12,COc1ccccc1-c1ccccc1[C@H]1[C@@H](CO)N(C(=O)C2CCOCC2)[C@H]1C#N,> 10 µM (inactive)
13,COc1cccc(NC(=O)N2C[C@@H](O)COC[C@H]3O[C@H](CC(=O)NC4CCC4)CC[C@@H]32)c1,> 10 µM (inactive)
14,COCC(=O)N1[C@@H]2c3ccc(/C=C/c4ccccc4)c(=O)n3C[C@H]1[C@H](CO)[C@H]2C(=O)N1CCOCC1,> 10 µM (inactive)
15,O=C(C[C@@H]1CC[C@H]2[C@@H](COC[C@H](O)CN2Cc2cccc(F)c2)O1)NCc1cccc(F)c1,> 10 µM (inactive)
16,CCCNC(=O)N1[C@H](CO)[C@H](c2ccccc2-c2ccc(C)cc2)[C@@H]1C#N,> 10 µM (inactive)
17,COc1ccc(C#Cc2ccc([C@H]3[C@H]4CN(C(=O)c5ccc(F)cc5)CC(=O)N4[C@H]3CO)cc2)cc1,> 10 µM (inactive)
18,CN1C(=O)c2cc(NC(=O)C3CCOCC3)ccc2OC[C@H]2O[C@@H](CC(=O)NCCc3ccncc3)CC[C@H]21,> 10 µM (inactive)
19,COc1ccc2c3c(n(C)c2c1)[C@H](CO)N(C)CC31CCN(S(=O)(=O)c2cccc(F)c2)CC1,> 10 µM (inactive)
20,Cc1ccccc1-c1ccc([C@H]2[C@H](CO)N3C(=O)CN(S(C)(=O)=O)C[C@@H]23)cc1,> 10 µM (inactive)
21,O=C(Nc1cc(F)ccc1F)N1CC(=O)N2[C@H](C1)[C@@H](c1ccc(/C=C/c3ccccc3)cc1)[C@@H]2CO,> 10 µM (inactive)
22,COc1ccc(C#Cc2ccc([C@H]3[C@@H](CO)N4C(=O)CN(C(=O)c5ccc(F)cc5)C[C@H]34)cc2)cc1,> 10 µM (inactive)
23,CN1CCCCN2[C@H](CO)[C@@H](c3ccc(-c4ccc(F)cc4)cc3)[C@@H]2C1,> 10 µM (inactive)

row,SMILES,active concentration
1,COc1ccccc1CNC(=O)C[C@@H]1CC[C@@H]2[C@H](COC[C@H](O)CN2C(=O)Nc2ccccc2)O1,> 10 µM (inactive)
2,O=C(C[C@@H]1CC[C@@H]2[C@H](COC[C@H](O)CN2S(=O)(=O)c2ccccc2)O1)N[C@H]1CCN(Cc2ccccc2)C1,> 10 µM (inactive)
3,CCS(=O)(=O)Nc1ccc2c(c1)C(=O)N(C)[C@H]1CC[C@H](CC(=O)N[C@@H]3CCN(Cc4ccccc4)C3)O[C@@H]1CO2,> 10 µM (inactive)
4,CC1C=NC(S(=O)(=O)N2CC[C@H]3[C@@H](CO)N(C)c4ccc(-c5ccccc5F)cc4[C@H]32)=N1 (some centres undefined),> 10 µM (inactive)
5,COCC(=O)N1[C@H](C#N)[C@H](c2ccccc2-c2ccccc2F)[C@H]1CO,> 10 µM (inactive)
6,O=C(Nc1cccc(F)c1)N1CCCCN2[C@H](C1)[C@@H](c1ccc(C#Cc3cccnc3)cc1)[C@@H]2CO,> 10 µM (inactive)
7,C/C=C/c1ccc2c(c1)[C@H]1[C@H](CCN1C(=O)Cc1cccnc1)[C@@H](CO)N2C,> 10 µM (inactive)
8,O=C1CN(S(=O)(=O)Cc2ccccc2)C[C@@H]2[C@H](c3ccc(C#Cc4ccccc4)cc3)[C@H](CO)N12,> 10 µM (inactive)
9,CC(=O)N1CC[C@H]2[C@@H]1c1cc(-c3ccc(C#N)cc3)ccc1N(C)[C@H]2CO,> 10 µM (inactive)
10,CCN1CC(=O)N2[C@H](CO)[C@@H](c3ccc(Br)cc3)[C@@H]2C1,> 10 µM (inactive)
11,O=C(CC1CC1)N1[C@H](CO)[C@@H](c2ccccc2)C12CN(Cc1ccccc1F)C2,> 10 µM (inactive)
12,COc1ccccc1-c1ccc([C@@H]2[C@@H](CO)N(CC3CC3)C23CN(S(C)(=O)=O)C3)cc1,> 10 µM (inactive)
13,Cc1ccccc1-c1ccccc1[C@@H]1[C@@H](C#N)N(C(=O)c2cccc(F)c2)[C@H]1CO,> 10 µM (inactive)
14,CC=Cc1ccc2n(c1=O)C[C@@H]1[C@@H](CO)[C@H](C(=O)NCC)N(C(=O)CC3CC3)[C@H]21 (mixture of isomers),> 10 µM (inactive)
15,COC(=O)C[C@@H]1CC[C@@H]2[C@@H](COc3ccc(NC(=O)c4cccc(Cl)c4)cc3C(=O)N2C)O1,> 10 µM (inactive)
16,CCC(=O)N1CC2(C1)[C@@H](c1ccc(-c3ccc(F)cc3)cc1)[C@H](CO)N2C(=O)CC,> 10 µM (inactive)
17,N#C[C@H]1[C@H](c2ccccc2-c2ccccc2F)[C@H](CO)N1C(=O)Cc1ccccc1,> 10 µM (inactive)
18,C/C=C/c1ccc([C@@H]2[C@@H](CO)N3CCCCN(S(=O)(=O)c4ccc(OC)cc4)C[C@H]23)cc1,> 10 µM (inactive)
19,C/C=C/c1ccc([C@H]2[C@@H](CO)N(C(C)=O)C23CN(C(=O)c2ccc(F)cc2)C3)cc1,> 10 µM (inactive)
20,OC[C@@H]1[C@@H]2c3ccccc3NC[C@@H]2N1CC1CCOCC1,> 10 µM (inactive)
21,COc1cccc(C#Cc2ccc3c(c2)[C@@H]2[C@@H](CCN2C(=O)CC2CC2)[C@@H](CO)N3)c1,> 10 µM (inactive)
22,CC(C)C#Cc1ccc([C@@H]2[C@@H](CO)N3C(=O)CN(C(=O)c4ccc5c(c4)OCO5)C[C@H]23)cc1,> 10 µM (inactive)
23,CCC(=O)N1CC2(C1)[C@@H](c1ccc(-c3ccc(F)cc3)cc1)[C@@H](CO)N2C(=O)CC,> 10 µM (inactive)

# Reference: PubChem BioAssay AID977613 (Broad Institute, 2014)
